{"source": "patent US20250115600A1", "about": "“COVALENT MODIFIERS OF AKT1 AND USES THEREOF” (Terremoto Biosciences, Inc., priority 2022, published 2025)", "key": {"[1]": {"target": "AKT1 E17K mutant protein (Homo sapiens (Human), UniProt P31749, E17K)", "sequence (P31749 2-480 E17K)": "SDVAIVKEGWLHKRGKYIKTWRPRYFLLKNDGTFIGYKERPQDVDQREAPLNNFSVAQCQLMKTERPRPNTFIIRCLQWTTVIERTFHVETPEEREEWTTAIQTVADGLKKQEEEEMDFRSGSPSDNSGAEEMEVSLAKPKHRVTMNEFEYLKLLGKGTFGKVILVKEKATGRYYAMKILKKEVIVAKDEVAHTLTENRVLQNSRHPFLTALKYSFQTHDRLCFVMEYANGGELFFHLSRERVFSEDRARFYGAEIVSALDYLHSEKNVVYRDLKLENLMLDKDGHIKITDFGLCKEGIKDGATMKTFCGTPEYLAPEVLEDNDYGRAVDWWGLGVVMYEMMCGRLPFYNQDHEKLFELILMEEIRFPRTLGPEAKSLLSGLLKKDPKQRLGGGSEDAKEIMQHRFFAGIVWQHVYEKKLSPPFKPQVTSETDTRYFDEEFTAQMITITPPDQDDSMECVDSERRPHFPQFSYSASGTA", "experiment": "Intact mass spectrometry, covalent complex formation and ARQ-092 competition", "type": "binding", "details": "for covalent complex formation with AKT1 E17K mutant protein / covalent complex formation with AKT1 E17K mutant protein in presence of competitor: protein 1 μM, compound 1.5 μM, 2 hrs at 37° C., NaBH4 reduction; for covalent complex formation with AKT1 E17K mutant protein: absence of competitor; for covalent complex formation with AKT1 E17K mutant protein in presence of competitor: with ARQ092 (50 μM); for selectivity of complex formation, AKT1 E17K versus AKT1 WT: comparison of the spectra without competitor", "description": "(§1) AKT1 WT or AKT1 E17K (1 μM) was treated with a compound from Table 1 (1.5 μM) for 2 hrs at 37° C., with and without ARQ092 (50 μM) competitor as a specificity control. Reversible imines were captured by reductive amination with 5 mM NaBH4 for 5 min. Reduction reactions were quenched by diluting the sample in equal volume acetonitrile+1% TFA, then analyzed by LCMS.\n(§2) FIGS. 1 to 25 provide intact mass spectra for AKT1 WT protein and AKT1 E17K mutant protein after incubation with compounds of the present disclosure and subsequent borohydride reduction. […] Further, FIGS. 1 to 10, 12, and 14 to 25 each provide intact mass spectra following the incubation of an AKT1 protein with a compound of the present disclosure both in the absence of a competitor molecule (i.e., ARQ-092, a molecule known to bind to and inhibit the function of AKT1); and in the presence of a significant stoichiometric excess of a competitor molecule."}, "[2]": {"target": "T1, AKT1 WT (Homo sapiens (Human), UniProt P31749)", "experiment": "Intact mass spectrometry, covalent complex formation and ARQ-092 competition", "type": "binding", "details": "protein 1 μM, compound 1.5 μM, 2 hrs at 37° C., NaBH4 reduction; for covalent complex formation with AKT1 WT protein: absence of competitor; for covalent complex formation with AKT1 WT protein in presence of competitor: with ARQ092 (50 μM)", "description": "as §1, §2"}, "[3]": {"target": "AKT1 E17K (Homo sapiens (Human), UniProt P31749, E17K)", "sequence (P31749 whole entry E17K)": "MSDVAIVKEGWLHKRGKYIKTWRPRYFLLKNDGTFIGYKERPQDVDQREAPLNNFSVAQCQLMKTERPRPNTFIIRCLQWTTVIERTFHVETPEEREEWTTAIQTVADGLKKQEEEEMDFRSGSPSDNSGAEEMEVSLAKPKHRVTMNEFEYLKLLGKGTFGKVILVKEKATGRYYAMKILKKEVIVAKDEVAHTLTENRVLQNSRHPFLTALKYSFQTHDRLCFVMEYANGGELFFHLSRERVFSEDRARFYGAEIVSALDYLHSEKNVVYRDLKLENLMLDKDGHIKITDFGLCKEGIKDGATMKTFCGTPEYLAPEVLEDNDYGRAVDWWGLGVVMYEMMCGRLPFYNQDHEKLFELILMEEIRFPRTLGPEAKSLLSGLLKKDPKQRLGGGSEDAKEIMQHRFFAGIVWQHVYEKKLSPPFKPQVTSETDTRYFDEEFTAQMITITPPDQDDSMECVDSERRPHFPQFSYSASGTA", "experiment": "Live cell target engagement (NanoBRET) in HEK293 cells", "type": "cell-based", "details": "for IC50: HEK293, 2 hours at 37° C."}, "[4]": {"target": "T1, AKT1 WT", "experiment": "Live cell target engagement (NanoBRET) in HEK293 cells", "type": "cell-based", "details": "HEK293, 2 hours at 37° C."}, "[5]": {"target": "AKT2 (Homo sapiens (Human), UniProt P31751)", "sequence (P31751 whole entry)": "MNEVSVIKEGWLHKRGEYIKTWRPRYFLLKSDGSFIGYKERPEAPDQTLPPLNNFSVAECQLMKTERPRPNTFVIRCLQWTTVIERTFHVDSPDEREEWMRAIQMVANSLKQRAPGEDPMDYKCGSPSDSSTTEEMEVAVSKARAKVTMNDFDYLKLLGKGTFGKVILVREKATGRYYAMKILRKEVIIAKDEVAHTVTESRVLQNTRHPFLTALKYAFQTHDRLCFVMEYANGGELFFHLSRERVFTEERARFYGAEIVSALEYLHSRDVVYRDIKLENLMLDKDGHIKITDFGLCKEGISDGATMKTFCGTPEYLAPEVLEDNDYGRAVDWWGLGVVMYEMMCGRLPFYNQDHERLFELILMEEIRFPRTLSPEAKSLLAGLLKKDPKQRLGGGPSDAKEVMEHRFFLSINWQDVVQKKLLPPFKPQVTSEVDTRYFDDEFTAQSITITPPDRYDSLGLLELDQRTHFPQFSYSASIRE", "experiment": "Live cell target engagement (NanoBRET) in HEK293 cells", "type": "cell-based", "details": "HEK293, 2 hours at 37° C."}, "[6]": {"target": "T1, AKT1 WT", "experiment": "Dissociation rate by intact protein LCMS after ARQ092 chase", "type": "binding", "details": "compound 1.5 μM, 2 hours at 37° C., then ARQ092 50 μM", "description": "AKT1 WT or AKT1 E17K (1 μM) were treated with a compound of Table 1 (1.5 μM) for 2 hours at 37° C., then ARQ092 (50 μM final concentration) was added to prevent aldehyde-containing compound rebinding after initial dissociation. At various timepoints, aliquots were removed and quenched with 5 mM NaBH4 for 5 min to capture the reversible imine through reductive amination. Reduction reactions were quenched by diluting the sample in equal volume acetonitrile+1% TFA, then analyzed by LCMS. Deconvoluted monoisotopic intensities of unmodified vs. compound-modified mass peaks were compared."}}, "data": [{"smiles": "Nc1ncccc1-c1nc2ccc(-c3ccccc3)nc2n1-c1ccc(CNC(=O)Cc2ccc(C=O)c(O)c2)cc1", "note": "[Compound 132, N-(4-(2-(2-aminopyridin-3-yl)-5-phenyl-3H-imidazo[4,5-b]pyridin-3-yl)benzyl)-2-(4-formyl-3-hydroxyphenyl)acetamide]", "values": [{"measurement": "covalent complex formation with AKT1 E17K mutant protein", "setting": "[1]", "result": "presence of covalent complex"}, {"measurement": "covalent complex formation with AKT1 E17K mutant protein in presence of competitor", "setting": "[1]", "result": "Essentially no covalent complex formation"}, {"measurement": "covalent complex formation with AKT1 WT protein", "setting": "[2]", "result": "presence of covalent complex"}, {"measurement": "covalent complex formation with AKT1 WT protein in presence of competitor", "setting": "[2]", "result": "Essentially no covalent complex formation"}, {"measurement": "AKT1 E17K IC50: Selectivity vs AKT1 WT", "setting": "[3]", "result": 3.2}, {"measurement": "AKT1 E17K IC50: Selectivity vs AKT2", "setting": "[3]", "result": 23}, {"measurement": "IC50", "setting": "[3]", "result": "< 100", "unit": "nM"}, {"measurement": "IC50", "setting": "[4]", "result": "< 100", "unit": "nM"}, {"measurement": "IC50", "setting": "[5]", "result": "100 to 500", "unit": "nM"}]}, {"smiles": "Cc1ccc2nc(-c3cccnc3N)n(-c3ccc(C4(NC(=O)Cc5ccc(C=O)c(O)c5F)CC4)cc3)c2n1", "note": "[Compound 139, N-(1-{4-[2-(2-aminopyridin-3-yl)-5-methylimidazo[4,5-b]pyridin-3-yl]phenyl}cyclopropyl)-2-(2-fluoro-4-formyl-3-hydroxyphenyl)acetamide]", "values": [{"measurement": "selectivity of complex formation, AKT1 E17K versus AKT1 WT", "setting": "[1]", "result": "selective for complex formation with AKT1 E17K"}, {"measurement": "covalent complex formation with AKT1 E17K mutant protein", "setting": "[1]", "result": "significant presence of a covalent complex"}, {"measurement": "covalent complex formation with AKT1 E17K mutant protein in presence of competitor", "setting": "[1]", "result": "lower level of covalent complex formation"}, {"measurement": "covalent complex formation with AKT1 WT protein", "setting": "[2]", "result": "presence of a covalent complex"}, {"measurement": "covalent complex formation with AKT1 WT protein in presence of competitor", "setting": "[2]", "result": "Essentially no covalent complex formation"}, {"measurement": "AKT1 (WT) t1/2", "setting": "[6]", "result": 47.8, "unit": "min"}, {"measurement": "AKT1 E17K IC50: Selectivity vs AKT1 WT", "setting": "[3]", "result": 1.7}, {"measurement": "AKT1 E17K IC50: Selectivity vs AKT2", "setting": "[3]", "result": 20}, {"measurement": "IC50", "setting": "[3]", "result": "< 100", "unit": "nM"}, {"measurement": "IC50", "setting": "[4]", "result": "< 100", "unit": "nM"}, {"measurement": "IC50", "setting": "[5]", "result": "100 to 500", "unit": "nM"}]}, {"smiles": "Nc1ncccc1-c1nc2ccc(N3CCOCC3)nc2n1-c1ccc(C2(NC(=O)Cc3ccc(C=O)c(O)c3F)CC2)cc1", "note": "[Compound 140, N-(1-{4-[2-(2-aminopyridin-3-yl)-5-(morpholin-4-yl)imidazo[4,5-b]pyridin-3-yl]phenyl}cyclopropyl)-2-(2-fluoro-4-formyl-3-hydroxyphenyl)acetamide]", "values": [{"measurement": "covalent complex formation with AKT1 E17K mutant protein", "setting": "[1]", "result": "significant presence of a covalent complex"}, {"measurement": "covalent complex formation with AKT1 E17K mutant protein in presence of competitor", "setting": "[1]", "result": "Essentially no covalent complex formation"}, {"measurement": "covalent complex formation with AKT1 WT protein", "setting": "[2]", "result": "presence of a covalent complex"}, {"measurement": "covalent complex formation with AKT1 WT protein in presence of competitor", "setting": "[2]", "result": "Essentially no covalent complex formation"}, {"measurement": "AKT1 E17K IC50: Selectivity vs AKT1 WT", "setting": "[3]", "result": 1.4}, {"measurement": "AKT1 E17K IC50: Selectivity vs AKT2", "setting": "[3]", "result": 10}, {"measurement": "IC50", "setting": "[3]", "result": "< 100", "unit": "nM"}, {"measurement": "IC50", "setting": "[4]", "result": "< 100", "unit": "nM"}, {"measurement": "IC50", "setting": "[5]", "result": "100 to 500", "unit": "nM"}]}, {"smiles": "Nc1ncccc1-c1nc2ccc(-n3cccn3)nc2n1-c1ccc(C2(NC(=O)Cc3ccc(C=O)c(O)c3F)CC2)cc1", "note": "[Compound 141, N-(1-{4-[2-(2-aminopyridin-3-yl)-5-(pyrazol-1-yl)imidazo[4,5-b]pyridin-3-yl]phenyl}cyclopropyl)-2-(2-fluoro-4-formyl-3-hydroxyphenyl)acetamide]", "values": [{"measurement": "selectivity of complex formation, AKT1 E17K versus AKT1 WT", "setting": "[1]", "result": "selective for complex formation with AKT1 E17K"}, {"measurement": "covalent complex formation with AKT1 E17K mutant protein", "setting": "[1]", "result": "significant presence of a covalent complex"}, {"measurement": "covalent complex formation with AKT1 E17K mutant protein in presence of competitor", "setting": "[1]", "result": "Essentially no covalent complex formation"}, {"measurement": "covalent complex formation with AKT1 WT protein", "setting": "[2]", "result": "presence of a covalent complex"}, {"measurement": "covalent complex formation with AKT1 WT protein in presence of competitor", "setting": "[2]", "result": "Essentially no covalent complex formation"}, {"measurement": "AKT1 E17K IC50: Selectivity vs AKT1 WT", "setting": "[3]", "result": 1.2}, {"measurement": "AKT1 E17K IC50: Selectivity vs AKT2", "setting": "[3]", "result": 4.4}, {"measurement": "IC50", "setting": "[3]", "result": "< 100", "unit": "nM"}, {"measurement": "IC50", "setting": "[4]", "result": "< 100", "unit": "nM"}, {"measurement": "IC50", "setting": "[5]", "result": "< 100", "unit": "nM"}]}, {"smiles": "Nc1ncccc1-c1nc2ccc(-c3cccc(N4CCOCC4)c3)nc2n1-c1ccc(CNC(=O)c2ccc(O)c(C=O)c2)cc1", "note": "[Example 20, N-(4-(2-(2-aminopyridin-3-yl)-5-(3-morpholinophenyl)-3H-imidazo[4,5-b]pyridin-3-yl)benzyl)-3-formyl-4-hydroxybenzamide]", "values": [{"measurement": "selectivity of complex formation, AKT1 E17K versus AKT1 WT", "setting": "[1]", "result": "selective for complex formation with AKT1 E17K"}, {"measurement": "covalent complex formation with AKT1 E17K mutant protein", "setting": "[1]", "result": "significant presence of a covalent complex"}, {"measurement": "covalent complex formation with AKT1 E17K mutant protein in presence of competitor", "setting": "[1]", "result": "Essentially no covalent complex formation"}, {"measurement": "covalent complex formation with AKT1 WT protein", "setting": "[2]", "result": "presence of a covalent complex"}, {"measurement": "covalent complex formation with AKT1 WT protein in presence of competitor", "setting": "[2]", "result": "Essentially no covalent complex formation"}, {"measurement": "AKT1 E17K IC50: Selectivity vs AKT1 WT", "setting": "[3]", "result": 2}, {"measurement": "AKT1 E17K IC50: Selectivity vs AKT2", "setting": "[3]", "result": 6}, {"measurement": "IC50", "setting": "[3]", "result": "< 100", "unit": "nM"}, {"measurement": "IC50", "setting": "[4]", "result": "< 100", "unit": "nM"}, {"measurement": "IC50", "setting": "[5]", "result": "< 100", "unit": "nM"}]}]}
